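Assay format: 96-well plates, 48-hour exposure. TGI marks complete inhibition of growth.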
Tests used:
Assay in all cases: DTP human tumour cell line panel, 48 h
NCI-H23 lung = system: NCI-H23 lung
KM12 colon = system: KM12 colon
OVCAR-4 ovarian = system: OVCAR-4 ovarian
HL-60(TB) leukemia = system: HL-60(TB) leukemia
SNB-19 CNS = system: SNB-19 CNS
NCI-H460 lung = system: NCI-H460 lung
HOP-62 NSCLC = system: HOP-62 NSCLC
SK-MEL-2 melanoma = system: SK-MEL-2 melanoma
SK-OV-3 ovarian = system: SK-OV-3 ovarian
UACC-257 melanoma = system: UACC-257 melanoma
HCT-116 colon = system: HCT-116 colon
SK-MEL-28 melanoma = system: SK-MEL-28 melanoma
DU-145 prostate = system: DU-145 prostate
HCC-2998 colon = system: HCC-2998 colon
MALME-3M melanoma = system: MALME-3M melanoma
COLO 205 colon = system: COLO 205 colon
OVCAR-8 ovarian = system: OVCAR-8 ovarian
M14 melanoma = system: M14 melanoma
OVCAR-5 ovarian = system: OVCAR-5 ovarian

| Structure (SMILES) | TGI (NCI-H23 lung) [µM] | TGI (KM12 colon) [µM] | TGI (OVCAR-4 ovarian) [µM] | TGI (HL-60(TB) leukemia) [µM] | TGI (SNB-19 CNS) [µM] | TGI (NCI-H460 lung) [µM] | TGI (HOP-62 NSCLC) [µM] | TGI (SK-MEL-2 melanoma) [µM] | TGI (SK-OV-3 ovarian) [µM] | TGI (UACC-257 melanoma) [µM] | TGI (HCT-116 colon) [µM] | TGI (SK-MEL-28 melanoma) [µM] | TGI (DU-145 prostate) [µM] | TGI (HCC-2998 colon) [µM] | TGI (MALME-3M melanoma) [µM] | TGI (COLO 205 colon) [µM] | TGI (OVCAR-8 ovarian) [µM] | TGI (M14 melanoma) [µM] | TGI (OVCAR-5 ovarian) [µM] |
| --- | --- | --- | --- | --- | --- | --- | --- | --- | --- | --- | --- | --- | --- | --- | --- | --- | --- | --- | --- |
| Cn1c2c(c3ccccc31)CCN1C(=O)CN(C(=O)C3CCCCC3)CC21 (stereo not given) | > 100 | > 100 | > 100 | > 100 | > 100 | > 100 | > 100 | > 100 | > 100 | > 100 | > 100 | > 100 | > 100 | > 100 | > 100 | > 100 | > 100 | > 100 | > 100 |
| CCOC(=O)c1nc2cc(F)c(N3CCOCC3)cc2[nH]c1=O | > 100 | > 100 | > 100 | > 100 | > 100 | > 100 | > 100 | > 100 | > 100 | > 100 | > 100 | > 100 | > 100 | > 100 | > 100 | > 100 | > 100 | > 100 | > 100 |
| c1ccc2c(c1)SCCC2NC1=NCCO1 (stereo not given) | > 100 | > 100 | > 100 | > 100 | > 100 | > 100 | > 100 | > 100 | > 100 | – | > 100 | > 100 | > 100 | > 100 | > 100 | > 100 | > 100 | > 100 | > 100 |
| NCC(=O)Nc1ccc(S(=O)(=O)O)c2cc(S(=O)(=O)O)cc(S(=O)(=O)O)c12 | > 100 | > 100 | > 100 | > 100 | > 100 | – | > 100 | > 100 | > 100 | > 100 | > 100 | > 100 | > 100 | > 100 | > 100 | > 100 | > 100 | > 100 | > 100 |
| CC(=O)OCC1OC(OC2CC3C(C)(C)C(O)CC[C@]3(C)C3CCC45CC4(CCC5[C@@H](C)CC(O)C(O)C(C)(C)O)[C@]23C)C(O)C(O)C1O (stereo not given in full) | > 10 | > 10 | > 10 | > 10 | > 10 | > 10 | > 10 | > 10 | > 10 | > 10 | > 10 | > 10 | > 10 | > 10 | > 10 | > 10 | > 10 | > 10 | > 10 |
| COc1ccc(N=NC(=O)NC(CC(C)C)C(=O)NC(C)C(=O)O)cc1 (stereo not given) | > 100 | > 100 | > 100 | > 100 | > 100 | > 89 | > 100 | > 100 | – | > 100 | > 100 | > 100 | > 100 | > 100 | > 100 | 16.3 | > 100 | > 100 | > 100 |
| CC1C=CN(N(C)C)C2=C1C(=O)c1cnccc1C2=O (stereo not given) | 0.823 | 2.8 | 2.03 | 4.66 | 2.31 | 0.389 | 1.42 | 4.02 | 2.81 | 0.75 | 1.48 | 2.07 | 1.39 | 1.8 | 1.49 | 2.45 | 3.67 | 1.62 | 2.83 |
| [N-]=[N+]=NCc1nc(N)c2c3c(sc2n1)CCCC3 | 3.78 | 2.86 | 1.42 | > 100 | 21.4 | 13.6 | 18.3 | 27.9 | 24.1 | 25.8 | 12 | 36.3 | 13.2 | 4.76 | 3.27 | > 39.3 | 3.72 | 17.7 | 10.1 |
| CC1=C(/C=C/C(C)=C/C=C/C(C)=C/C(=O)OC2CC(n3cc(F)c(=O)[nH]c3=O)OC2CO)C(C)(C)CCC1 (stereo not given) | 20.7 | 31.4 | 21.5 | 7.37 | 23.6 | 15.3 | 13.7 | 55.5 | 19.7 | 29.6 | 14.4 | 24.6 | 13.4 | 26.8 | 31.9 | 25.8 | 23.6 | 17.4 | 36.8 |
| CCOC(=O)/C=C(\C(=O)OCC)n1ccc(=O)n(Cc2cn(CCCCOC(C)=O)nn2)c1=O | 32.3 | 31.5 | 48.2 | 1.25 | > 55.6 | 57.7 | 41.2 | 37 | > 65.5 | 32.9 | > 47.4 | 21.2 | 45.4 | 41 | 4.83 | > 36.2 | 20.1 | 54.8 | 31.4 |
| Cc1nc2ccc(F)cc2c2c1CCN2c1ccc(Cl)cc1 | 48.2 | – | > 100 | 17.7 | > 100 | 47.7 | 56.4 | 41.4 | > 100 | 13.8 | 36.2 | 28 | > 100 | 29.4 | 26.9 | 20.6 | 34.2 | 21.4 | > 100 |
| CC1CN=C(N(C(=O)Nc2ccccc2)c2ccc(Cl)c(Cl)c2)S1 (stereo not given) | > 100 | > 100 | > 100 | > 100 | > 100 | 53.1 | > 100 | 40.4 | > 100 | > 100 | > 100 | > 100 | > 100 | 69.9 | > 100 | > 10 | > 100 | > 100 | > 100 |
| CC1(C)OC[C@@H]([C@H](O)C2C=CC(=O)S2)O1 (stereo not given in full) | 78.5 | 30.1 | > 100 | > 100 | > 100 | > 100 | > 100 | 77.1 | > 100 | > 100 | 27.3 | – | 56.6 | 33.5 | 43.1 | 40.5 | 56.4 | > 100 | > 100 |
| CC1OC(OC2C(OC(=O)[C@]34CCC(C)(C)C[C@H]3C3=CC[C@@H]5[C@@]6(C)CC[C@H](OC7OC(CO)C(O)C(O)C7OC7OC(CO)C(O)C(O)C7O)C(C)(C)[C@@H]6CC[C@@]5(C)[C@]3(C)CC4)OCC(O)C2O)C(O)C(OC2OCC(O)C(O)C2O)C1OC1OCC(O)C(OC2OCC(O)C(O)C2O)C1O (stereo not given in full) | 25.1 | 21.8 | > 61.6 | 10.8 | 49.5 | > 100 | 29.6 | 24.1 | > 69.5 | 13.9 | > 100 | 4.85 | 38.3 | 4.38 | 18.3 | 8.16 | > 83.2 | 6.3 | 23.5 |
| CCOC(=O)/C=C(/C(=O)OCC)n1cnc2c(=O)[nH]c(NC(C)=O)nc21 | > 100 | > 100 | > 100 | > 100 | > 100 | > 100 | > 100 | > 100 | > 100 | > 100 | > 100 | > 100 | > 100 | > 100 | > 100 | > 100 | > 100 | > 100 | > 100 |
| O=c1nc(N2CCNCC2)oc2cc(Cl)oc(=O)c12 | 27 | 15.5 | 21.6 | 8.47 | 36.7 | 22.4 | 14 | 29.1 | 33.2 | 27.7 | 7.53 | 15.8 | 21.8 | 25.1 | 14.5 | 19 | 5.67 | 7.94 | 30 |
| COc1ccc(C[C@H]2COC(=O)[C@@H]2Cc2cccc(Br)c2)cc1OC | > 100 | 43.3 | 58 | 38.6 | > 100 | 67.2 | > 100 | 73.5 | 66.4 | 56.2 | > 100 | 68.4 | > 100 | 66.4 | 47.6 | 28.7 | 69.6 | 27.8 | > 100 |
| COc1cccc(C2c3cc4c(cc3OC(C)(N3CCCC3)C2C)OCO4)c1 (stereo not given) | 71.1 | 17.8 | 75 | > 100 | > 100 | 26.4 | 20.6 | 11.2 | 41.5 | 70 | 26.6 | > 100 | 49.6 | 32.8 | 64.7 | 23.6 | 64.1 | 13.9 | 47.5 |
| CCOc1nnnc2nc[nH]c12 | > 100 | > 100 | > 100 | > 100 | – | > 100 | > 100 | > 100 | > 100 | > 100 | > 100 | > 100 | > 100 | > 100 | > 100 | > 100 | > 100 | > 100 | > 100 |
| Cn1c2ccccc2c(=O)c2cccc(C(=O)NC(CS)C(=O)O)c21 (stereo not given) | > 100 | > 100 | > 100 | 38.9 | > 100 | > 100 | > 100 | > 100 | > 100 | > 100 | > 100 | > 100 | > 100 | > 100 | > 100 | > 100 | > 100 | > 100 | > 100 |
| COC(=O)/C=C\C(C#N)(C#N)N=Cc1cc(Br)cs1 | 13.5 | 48 | 27.1 | 0.12 | 32.5 | 40.7 | 33 | 25.5 | 33.6 | 7.74 | 3.72 | 10.4 | 19.1 | 30.8 | 3.47 | 3.99 | 11.1 | 6.48 | 20.8 |
| C=C1CC/C=C(\C)CCC[C@H](C)[C@@H](O)[C@@H]2OC(=O)C(=C)[C@@H]2C[C@H]1O | 26.8 | 29.9 | 51.7 | > 100 | 28.7 | 27.1 | 30.8 | 27 | > 64.1 | 31.9 | 30.5 | 22.2 | 17.8 | 50.5 | 22.1 | 29.9 | 16.7 | 28.4 | 39.2 |
| COC1=C(Br)[C@H](O)[C@@]2(C=C1Br)CC(C(=O)NCCCOc1c(Br)cc(C(O)CNC(C)=O)cc1Br)=NO2 (stereo not given in full) | > 10 | > 10 | > 10 | > 10 | > 10 | > 10 | > 10 | > 10 | > 10 | > 10 | > 10 | > 10 | > 10 | > 10 | > 10 | > 10 | > 10 | > 10 | > 10 |
| CC(=O)NC1=N/C(=C\c2ccc(Cl)cc2)C(=O)N1/C=C1\C(=O)Oc2ccccc2C1=O | > 100 | > 100 | > 100 | > 100 | > 100 | > 100 | > 100 | > 100 | > 100 | > 100 | > 100 | > 100 | > 100 | > 100 | > 100 | > 100 | > 100 | > 100 | > 100 |

Reference: PubChem BioAssay (NCI)
